Legend:
Type in all cases: cell-based, mouse
mESC [1] = assay: Western blot protein expression (densitometry); settings: mESC 24 h
Method in brief: (§1)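 Whole-cell RIPA extracts (probe sonication) quantified by DC assay; 20 µg protein resolved by SDS-PAGE, blotted to nitrocellulose. Blocked 1 h RT in 5% milk or BSA/TBST; primary antibodies 1:500–5000 overnight 4 °C, peroxidase secondary 1:2000 2 h RT. Chemiluminescent bands imaged, levels by densitometry.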

[2] = system: EC d6 (endothelial-like cells); assay: Western blot protein expression (densitometry); settings: EC d6 24 h; for CHK1 protein / RAD51 protein / gH2AX protein / p-CHK2 protein / p-KAP1 protein / p-RPA32 protein / p-p53 protein: Fig 5D
Method in brief: as §1

[3] = system: EC d4 (endothelial progenitor cells); assay: Western blot protein expression (densitometry); settings: EC d4 48 h; for CHK1 protein / RAD51 protein / gH2AX protein / p-CHK2 protein / p-KAP1 protein / p-RPA32 protein / p-p53 protein: Fig 5D
Method in brief: as §1

mESC [4] = assay: RT-qPCR mRNA expression
Description: Total RNA was purified using the RNeasy Mini Kit (Qiagen, Hilden, Germany). Reverse transcriptase (RT) reaction was performed with the HighCapacity cDNA Reverse Transcription Kit (Applied Biosystems, Darmstadt, Germany) using 900–2000 ng of RNA. Quantitative RT-qPCR analysis was performed using following conditions: (1) 95 °C–10 min; (2) 45 amplification cycles with 95 °C–15 s, 55 °C–15 s, and 72 °C–17 s; (3) 95 °C–1 min, 55 °C–1 min, 65 °C–5 s. If not stated otherwise, analyses were performed in technical triplicates using pooled samples from two independent experiments (each performed with biological duplicates) by use of a CFX96 cycler (BioRad) and the SensiMix SYBR Kit (Bioline, London, UK). The primers used for mRNA expression analyses are listed in Supplementary Table 1. To ensure the specificity of the amplification product, melting curves were recorded at the end of the run. mRNA expression levels were normalized to β-Actin and Gapdh. Relative mRNA expression in mESC or corresponding untreated controls was set to 1.0. Only changes in gene expression of ≤ 0.5- and ≥ 2-fold were considered as biologically relevant. Fold-changes in gene expression are summarized in Supplementary Table 2.

mESC [5] = assay: AlamarBlue cell viability; settings: Mus musculus
Description: (§2) Drug-induced cytotoxicity was monitored by analyzing cell viability using the AlamarBlue assay, which measures the reduction of the non-fluorescent dye resazurin (Sigma [Steinheim, Germany]) to fluorescent resorufin by living (i.e. metabolically active) cells. Fluorescence was measured in quadruplicates (excitation: 535 nm, emission: 590 nm (Tecan infinite 200, Tecan, Männedorf, Switzerland)). Relative cell viability of the untreated control was set to 100%.

[6] = system: EC d4 (endothelial progenitor cells); assay: AlamarBlue cell viability; settings: 48 h treatment
Description: as §2

EC d4 = assay: EdU incorporation (S-phase activity); settings: EC d4 48 h
Description: S-phase activity of cells was monitored by measuring EdU incorporation using the EdU-Click 488 assay according to the manufacturer’s protocol. Briefly, cells were pulse-treated with 5-ethynyl-2′-deoxyuridine (EdU) for 3 h. Alexa Fluor 488-conjugated reaction cocktail was added (30 min, RT) and nuclei were counterstained with DAPI. The percentage of EdU-positive area/DAPI-positive area was calculated by fluorescence microscopy (Olympus BX43, 20x objective).

[7] = Fig 5D, concentration 1 (Dox 1/B02 1/EST 1)
[8] = Fig 5D, concentration 2 (Dox 2/B02 2/EST 2)
[9] = concentration 1 (Dox 1/B02 1/EST 1)
[10] = concentration 2 (Dox 2/B02 2/EST 2)
[11] = mESC + 10 µM 24 h + 24 h post incubation, Fig 7A

Compound: Nc1ccccc1NC(=O)c1ccc(CNC(=O)OCc2cccnc2)cc1 [EST, entinostat]
- H3ac protein (mESC [1]; Fig 1D): 16.6 Fold of mESC
- H4ac protein (mESC [1]; Fig 1D): 7426.8 Fold of mESC
- aTubac (acetylated α-Tubulin) protein (mESC [1]; Fig 1D): 1.0 Fold of mESC
- CHK1 protein (mESC [1]; Fig 4H, Eto, Dox 1, B02, EST): 1.0 Fold of mESC
- p-ATR protein (mESC [1]; Fig 4H, Eto, Dox 1, B02, EST): 2.9 Fold of mESC
- p-CHK1 protein (mESC [1]; Fig 4H, Eto, Dox 1, B02, EST): 0.1 Fold of mESC
- p-RPA32 protein (mESC [1]; Fig 4H, Eto, Dox 1, B02, EST): 1.3 Fold of mESC
- p-p53 protein (mESC [1]; Fig 4H, Eto, Dox 1, B02, EST): 0.9 Fold of mESC
- CHK1 protein (mESC [1]; [7]): 0.8 Fold of mESC
- RAD51 protein (mESC [1]; [7]): 1.4 Fold of mESC
- gH2AX protein (mESC [1]; [7]): 7.7 Fold of mESC
- p-CHK2 protein (mESC [1]; [7]): 1.0 Fold of mESC
- p-KAP1 protein (mESC [1]; [7]): 2.9 Fold of mESC
- p-RPA32 protein (mESC [1]; [7]): 0.7 Fold of mESC
- p-p53 protein (mESC [1]; [7]): 0.9 Fold of mESC
- CHK1 protein (mESC [1]; [8]): 0.7 Fold of mESC
- RAD51 protein (mESC [1]; [8]): 1.4 Fold of mESC
- gH2AX protein (mESC [1]; [8]): 10.1 Fold of mESC
- p-CHK2 protein (mESC [1]; [8]): 1.0 Fold of mESC
- p-KAP1 protein (mESC [1]; [8]): 8.2 Fold of mESC
- p-RPA32 protein (mESC [1]; [8]): 0.7 Fold of mESC
- p-p53 protein (mESC [1]; [8]): 0.8 Fold of mESC
- AMPKa protein (mESC [1]; Fig 6E): 0.5 Fold of mESC
- GSK3b protein (mESC [1]; Fig 6E): 1.2 Fold of mESC
- p-p70SK protein (mESC [1]; Fig 6E): 0.8 Fold of mESC
- H3ac protein ([2]; Fig 1D): 7.8 Fold of mESC
- H4ac protein ([2]; Fig 1D): 4083.7 Fold of mESC
- aTubac (acetylated α-Tubulin) protein ([2]; Fig 1D): 1.0 Fold of mESC
- CHK1 protein [2, 9]: 0.6 Fold of mESC
- RAD51 protein [2, 9]: 0.6 Fold of mESC
- gH2AX protein [2, 9]: 1.3 Fold of mESC
- p-CHK2 protein [2, 9]: 0.5 Fold of mESC
- p-KAP1 protein [2, 9]: 0.0 Fold of mESC
- p-RPA32 protein [2, 9]: < 0.1 Fold of mESC
- p-p53 protein [2, 9]: 0.3 Fold of mESC
- CHK1 protein [2, 10]: 0.2 Fold of mESC
- RAD51 protein [2, 10]: 0.1 Fold of mESC
- gH2AX protein [2, 10]: 0.1 Fold of mESC
- p-CHK2 protein [2, 10]: 0.3 Fold of mESC
- p-KAP1 protein [2, 10]: 0.0 Fold of mESC
- p-RPA32 protein [2, 10]: < 0.1 Fold of mESC
- p-p53 protein [2, 10]: 0.3 Fold of mESC
- AMPKa protein ([2]; Fig 6E): 0.7 Fold of mESC
- GSK3b protein ([2]; Fig 6E): 1.7 Fold of mESC
- p-p70SK protein ([2]; Fig 6E): 0.7 Fold of mESC
- H3ac protein ([3]; Fig 1D): 4.6 Fold of mESC
- H4ac protein ([3]; Fig 1D): 1853.2 Fold of mESC
- aTubac (acetylated α-Tubulin) protein ([3]; Fig 1D): 0.9 Fold of mESC
- CHK1 protein [3, 9]: 0.7 Fold of mESC
- RAD51 protein [3, 9]: 1.0 Fold of mESC
- gH2AX protein [3, 9]: 9.1 Fold of mESC
- p-CHK2 protein [3, 9]: 0.6 Fold of mESC
- p-KAP1 protein [3, 9]: 0.0 Fold of mESC
- p-RPA32 protein [3, 9]: 0.8 Fold of mESC
- p-p53 protein [3, 9]: 0.4 Fold of mESC
- CHK1 protein [3, 10]: 1.0 Fold of mESC
- RAD51 protein [3, 10]: 0.9 Fold of mESC
- gH2AX protein [3, 10]: 8.9 Fold of mESC
- p-CHK2 protein [3, 10]: 0.9 Fold of mESC
- p-KAP1 protein [3, 10]: 0.0 Fold of mESC
- p-RPA32 protein [3, 10]: 0.9 Fold of mESC
- p-p53 protein [3, 10]: 0.5 Fold of mESC
- AMPKa protein ([3]; Fig 6E): 0.5 Fold of mESC
- GSK3b protein ([3]; Fig 6E): 2.3 Fold of mESC
- p-p70SK protein ([3]; Fig 6E): 1.6 Fold of mESC
- Cdkn1a mRNA (mESC [4]; [11]): 2.08 Fold of untreated control
- Cdkn2a mRNA (mESC [4]; [11]): 5.82 Fold of untreated control
- Glb1 mRNA (mESC [4]; [11]): 0.47 Fold of untreated control
- Il6 mRNA (mESC [4]; [11]): 6.25 Fold of untreated control
- Il8 mRNA (mESC [4]; [11]): 0.83 Fold of untreated control
- Tp53 mRNA (mESC [4]; [11]): 0.83 Fold of untreated control
- Brca1 mRNA (mESC [4]; mESC + 20 µM 24 h, Fig 5C): 0.52 Fold of mESC
- Chk1 mRNA (mESC [4]; mESC + 20 µM 24 h, Fig 5C): 0.27 Fold of mESC
- Rad51 mRNA (mESC [4]; mESC + 20 µM 24 h, Fig 5C): 0.29 Fold of mESC
- Pgc1a mRNA (mESC [4]; mESC + 20 µM 24 h, Fig 6D): 184.58 Fold of untreated control
- IC50 (mESC [5]; 24 h treatment): 18.8 µM
- IC50 (mESC [5]; 72 h treatment): 2.6 µM
- susceptibility (cell viability) of EC d4 as compared to both mESC and EC d6 [6]: significant higher
- S-phase activity (EdU-positive cells) (EC d4): not
